From PubChem BioAssay (NCI)
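1) Cells in 96-well plates. 2) Compound, 48 h, 5 concentrations. 3) Linear interpolation between surrounding doses. 4) Unreached endpoint = highest concentration. TGI is the concentration that stops growth completely.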

Tests used:
Test in all cases: NCI tumour cell line growth inhibition, 48 h
KM20L2 colon = system: KM20L2 colon
MOLT-4 leukemia = system: MOLT-4 leukemia
CAKI-1 renal = system: CAKI-1 renal
NCI-H522 lung = system: NCI-H522 lung
SK-OV-3 ovarian = system: SK-OV-3 ovarian
LXFL 529 NSCLC = system: LXFL 529 NSCLC
OVCAR-5 ovarian = system: OVCAR-5 ovarian
NCI-H23 lung = system: NCI-H23 lung
RXF 393 renal = system: RXF 393 renal
SNB-19 CNS = system: SNB-19 CNS
HCT-15 colon = system: HCT-15 colon
SW-620 colon = system: SW-620 colon
UACC-257 melanoma = system: UACC-257 melanoma
NCI-H226 lung = system: NCI-H226 lung
SK-MEL-2 melanoma = system: SK-MEL-2 melanoma
A549 NSCLC = system: A549 NSCLC
M19-MEL melanoma = system: M19-MEL melanoma
UACC-62 melanoma = system: UACC-62 melanoma
K-562 leukemia = system: K-562 leukemia
A498 renal = system: A498 renal
DLD-1 colon = system: DLD-1 colon
DMS 114 small cell lung = system: DMS 114 small cell lung
LOX IMVI melanoma = system: LOX IMVI melanoma
UO-31 renal = system: UO-31 renal
ACHN renal = system: ACHN renal
COLO 205 colon = system: COLO 205 colon
EKVX NSCLC = system: EKVX NSCLC
OVCAR-4 ovarian = system: OVCAR-4 ovarian
786-0 renal = system: 786-0 renal
M14 melanoma = system: M14 melanoma
TK-10 renal = system: TK-10 renal
SNB-75 CNS = system: SNB-75 CNS
DMS 273 small cell lung = system: DMS 273 small cell lung
KM12 colon = system: KM12 colon
HT29 colon = system: HT29 colon
SF-539 CNS = system: SF-539 CNS
HOP-62 NSCLC = system: HOP-62 NSCLC
OVCAR-3 ovarian = system: OVCAR-3 ovarian
SK-MEL-5 melanoma = system: SK-MEL-5 melanoma
SNB-78 CNS = system: SNB-78 CNS
HCC-2998 colon = system: HCC-2998 colon
SF-295 CNS = system: SF-295 CNS
SF-268 CNS = system: SF-268 CNS
HOP-18 NSCLC = system: HOP-18 NSCLC
XF 498 CNS = system: XF 498 CNS
U251 CNS = system: U251 CNS
HL-60(TB) leukemia = system: HL-60(TB) leukemia
IGROV1 ovarian = system: IGROV1 ovarian
HCT-116 colon = system: HCT-116 colon
CCRF-CEM leukemia = system: CCRF-CEM leukemia
MALME-3M melanoma = system: MALME-3M melanoma
RXF-631 renal = system: RXF-631 renal
OVCAR-8 ovarian = system: OVCAR-8 ovarian
SN12C renal = system: SN12C renal
NCI-H460 lung = system: NCI-H460 lung
RPMI-8226 leukemia = system: RPMI-8226 leukemia
P388 leukemia = system: P388 leukemia
SK-MEL-28 melanoma = system: SK-MEL-28 melanoma
SN12K1 renal = system: SN12K1 renal
MCF7 breast = system: MCF7 breast
NCI/ADR-RES ovarian = system: NCI/ADR-RES ovarian
P388/ADR leukemia = system: P388/ADR leukemia
HOP-92 NSCLC = system: HOP-92 NSCLC

Cc1ccccc1-n1c2nc(=O)n(C)c(=O)c-2nc2ccccc21
TGI (KM20L2 colon): 21.9 µM | TGI (MOLT-4 leukemia): 39.7 µM | TGI (CAKI-1 renal): 48.9 µM | TGI (NCI-H522 lung): 29.4 µM | TGI (SK-OV-3 ovarian): > 100 µM | TGI (LXFL 529 NSCLC): 26.3 µM | TGI (OVCAR-5 ovarian): 34.9 µM | TGI (NCI-H23 lung): 24.6 µM | TGI (RXF 393 renal): 39.2 µM | TGI (SNB-19 CNS): 28.8 µM | TGI (HCT-15 colon): 24.3 µM | TGI (SW-620 colon): 28.1 µM | TGI (UACC-257 melanoma): 21.4 µM | TGI (NCI-H226 lung): 45 µM | TGI (SK-MEL-2 melanoma): 32.5 µM | TGI (A549 NSCLC): 35.4 µM | TGI (M19-MEL melanoma): 3.84 µM | TGI (UACC-62 melanoma): 9.78 µM | TGI (K-562 leukemia): 43.6 µM | TGI (A498 renal): 79.1 µM | TGI (DLD-1 colon): 42.4 µM | TGI (DMS 114 small cell lung): 18.3 µM | TGI (LOX IMVI melanoma): 39.7 µM | TGI (UO-31 renal): 66.1 µM | TGI (ACHN renal): 21 µM | TGI (COLO 205 colon): 13.9 µM | TGI (EKVX NSCLC): 24.3 µM | TGI (OVCAR-4 ovarian): 26.6 µM | TGI (786-0 renal): 58 µM | TGI (M14 melanoma): 25.4 µM | TGI (TK-10 renal): 35.2 µM | TGI (SNB-75 CNS): 39.9 µM | TGI (DMS 273 small cell lung): 26.7 µM | TGI (KM12 colon): 33.5 µM | TGI (HT29 colon): 14.3 µM | TGI (SF-539 CNS): 29.2 µM | TGI (HOP-62 NSCLC): > 100 µM | TGI (OVCAR-3 ovarian): 6.94 µM | TGI (SK-MEL-5 melanoma): 23.1 µM | TGI (SNB-78 CNS): 43.1 µM | TGI (HCC-2998 colon): 24.2 µM | TGI (SF-295 CNS): 27.5 µM | TGI (SF-268 CNS): 32.1 µM | TGI (HOP-18 NSCLC): 24.2 µM | TGI (XF 498 CNS): 31.3 µM | TGI (U251 CNS): 33.2 µM | TGI (HL-60(TB) leukemia): 35.8 µM | TGI (IGROV1 ovarian): 37.9 µM | TGI (HCT-116 colon): 28.3 µM | TGI (CCRF-CEM leukemia): 40.4 µM | TGI (MALME-3M melanoma): 16.8 µM | TGI (RXF-631 renal): 36.3 µM | TGI (OVCAR-8 ovarian): 33.6 µM | TGI (SN12C renal): 26.6 µM | TGI (NCI-H460 lung): 27.3 µM | TGI (RPMI-8226 leukemia): 44.9 µM

CC(=O)NC(Cc1ccsc1)C(=O)O (stereo not drawn)
TGI (KM20L2 colon): > 100 µM | TGI (MOLT-4 leukemia): > 100 µM | TGI (CAKI-1 renal): > 100 µM | TGI (P388 leukemia): > 100 µM | TGI (NCI-H522 lung): > 100 µM | TGI (SK-MEL-28 melanoma): > 100 µM | TGI (SK-OV-3 ovarian): > 100 µM | TGI (OVCAR-5 ovarian): > 100 µM | TGI (NCI-H23 lung): > 100 µM | TGI (RXF 393 renal): > 100 µM | TGI (SNB-19 CNS): > 100 µM | TGI (HCT-15 colon): > 100 µM | TGI (SW-620 colon): > 100 µM | TGI (UACC-257 melanoma): > 100 µM | TGI (NCI-H226 lung): > 100 µM | TGI (SK-MEL-2 melanoma): > 100 µM | TGI (A549 NSCLC): > 100 µM | TGI (M19-MEL melanoma): > 100 µM | TGI (UACC-62 melanoma): > 100 µM | TGI (K-562 leukemia): > 100 µM | TGI (A498 renal): > 100 µM | TGI (DLD-1 colon): > 100 µM | TGI (DMS 114 small cell lung): > 100 µM | TGI (LOX IMVI melanoma): > 100 µM | TGI (UO-31 renal): > 100 µM | TGI (COLO 205 colon): > 100 µM | TGI (EKVX NSCLC): > 100 µM | TGI (OVCAR-4 ovarian): > 100 µM | TGI (SN12K1 renal): > 100 µM | TGI (SNB-75 CNS): > 100 µM | TGI (DMS 273 small cell lung): > 100 µM | TGI (KM12 colon): > 100 µM | TGI (HT29 colon): > 100 µM | TGI (MCF7 breast): > 100 µM | TGI (NCI/ADR-RES ovarian): > 100 µM | TGI (SF-539 CNS): > 100 µM | TGI (HOP-62 NSCLC): > 100 µM | TGI (OVCAR-3 ovarian): > 100 µM | TGI (SK-MEL-5 melanoma): > 100 µM | TGI (SNB-78 CNS): > 100 µM | TGI (HCC-2998 colon): > 100 µM | TGI (SF-295 CNS): > 100 µM | TGI (P388/ADR leukemia): > 100 µM | TGI (HOP-92 NSCLC): > 100 µM | TGI (SF-268 CNS): > 100 µM | TGI (HOP-18 NSCLC): > 100 µM | TGI (XF 498 CNS): > 100 µM | TGI (U251 CNS): > 100 µM | TGI (HL-60(TB) leukemia): > 100 µM | TGI (IGROV1 ovarian): > 100 µM | TGI (HCT-116 colon): > 100 µM | TGI (CCRF-CEM leukemia): > 100 µM | TGI (MALME-3M melanoma): > 100 µM | TGI (OVCAR-8 ovarian): > 100 µM | TGI (SN12C renal): > 100 µM | TGI (NCI-H460 lung): > 100 µM | TGI (RPMI-8226 leukemia): > 100 µM
